What was measured:
iPSCs = assay: Soluble Laminin 521 addition in 3D iPSC differentiation, preMK yield; format: cell-based, human; conditions: for Stage 2 preMK yields vs control: addition at Day −1 or Day 6
Method: […] 24 hours later, the media was replaced with Stage 1 media and media exchanges were performed for 6 days. Media was then exchanged with Stage 2 media, with or without soluble Laminin 521. 24 hours later, daily half media exchanges were performed for up to 6 additional days. […] To determine if the effect of Laminin 521 could also be observed in agitated 3D cultures, iPSCs were dissociated as single cells and 1.5 million cells were seeded into each well of a 6-well ultra-low adherent plate containing StemFlex and the Rock inhibitor H1152 (control media), with or without soluble recombinant Laminin 521, and placed on an orbital shaker. 24 hours later, the media was replaced with Stage 1 media and media exchanges were performed for 6 days. Media was then exchanged with Stage 2 media, with or without soluble Laminin 521. 24 hours later, daily half media exchanges were performed for up to 6 additional days.

[1] = tested on: iPSC differentiation cultures on Laminin 521; assay: WNT agonist addition during iPSC directed differentiation; format: cell-based, human; conditions: for Stage 1 differentiation efficiency at day 6, CD31 and CD34 immunofluorescence: first 48 hours
Description: WNT signaling is important during development. The GSK3 kinase inhibitors CHIR98014 and CHIR99021 act as WNT agonists. […] The control and CHIR98014 cultures were then transitioned to Stage 2, where the production and release of preMKs were tracked by immunofluorescence staining of CD41 and CD43.

Laminin 521: soluble recombinant Laminin 521
Stage 2 preMK yields vs control (iPSCs; 6-well ultra-low adherent plate on orbital shaker): increased the preMK yields | Stage 2 preMK yields vs control (iPSCs; 96-well U-bottom ultra-low adherent plate): increased the preMK yields | Laminin 521 effect on preMK yields (iPSCs; single cell passaged iPSCs aggregated in NutriStem): amplified

Cc1c[nH]c(-c2cnc(NCCNc3ccc(C#N)cn3)nc2-c2ccc(Cl)cc2Cl)n1 [CHIR99021]
Stage 1 differentiation efficiency at day 6, CD31 and CD34 immunofluorescence ([1]; 6 μM): dramatic increase

CHIR98014
Stage 1 differentiation efficiency at day 6, CD31 and CD34 immunofluorescence ([1]; 0.6 μM): dramatic increase | Stage 2 output, visual estimation of CD41+ cells ([1]; 0.6 μM, first 48 hours of Stage 1): higher output during Stage 2
